According to patent publication US11370798B2 (Vertex Pharmaceuticals Incorporated, priority 2012, dated 2022):

System: HCT116 colorectal cancer cells
Test: Cisplatin sensitization assay (96 h cell viability MTS);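 further: Test-compound concentration that lowers the Cisplatin IC50 by a set fold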
Assay type: cell-based
Conditions: compound and Cisplatin added simultaneously, Cisplatin sensitization value
In short: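 Viability read by MTS (1 h at 37° C) after 96 h co-exposure at 37° C, 5% CO2. Test compound and cisplatin were dosed simultaneously in a full concentration matrix, each 2-fold serially diluted from 10 μM final; sensitization values binned in μM.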

Structure (SMILES)	Cisplatin Sensitization Assay
CN(C)C(=O)[C@H]1CC[C@@H](Oc2ccncc2NC(=O)c2c(N)nn3cc(F)cnc23)CC1 [I-O-17, 2-amino-N-(4-(((1s,4s)-4-(dimethylcarbamoyl)cyclohexyl)oxy)pyridin-3-yl)-6-fluoropyrazolo[1,5-a]pyrimidine-3-carboxamide]	+++ (Cisplatin sensitization value of <0.02 μM)
CN1CCN(C(=O)[C@H]2CC[C@@H](Oc3ccncc3NC(=O)c3c(N)nn4cc(F)cnc34)CC2)CC1 [I-O-19, 2-amino-6-fluoro-N-(4-(((1s,4s)-4-(4-methylpiperazine-1-carbonyl)cyclohexyl)oxy)pyridin-3-yl)pyrazolo[1,5-a]pyrimidine-3-carboxamide]	+++ (Cisplatin sensitization value of <0.02 μM)
CCC(C#N)c1cnc2c(C(=O)Nc3cnccc3OC)c(N)nn2c1 (centres unmarked) [I-O-20, 2-amino-6-(1-cyanopropyl)-N-(4-methoxypyridin-3-yl)pyrazolo[1,5-a]pyrimidine-3-carboxamide]	++ (Cisplatin sensitization value>0.02 μM but <0.2 μM)
COc1ccncc1NC(=O)c1c(N)nn2cc(C(C)C#N)cnc12 (centres unmarked) [I-O-21, 2-amino-6-(1-cyanoethyl)-N-(4-methoxypyridin-3-yl)pyrazolo[1,5-a]pyrimidine-3-carboxamide]	++ (Cisplatin sensitization value>0.02 μM but <0.2 μM)
CN1CCC(Oc2ccncc2NC(=O)c2c(N)nn3cc(CC#N)cnc23)CC1 [I-O-23, 2-amino-6-(cyanomethyl)-N-(4-((1-methylpiperidin-4-yl)oxy)pyridin-3-yl)pyrazolo[1,5-a]pyrimidine-3-carboxamide]	+++ (Cisplatin sensitization value of <0.02 μM)
CN(C)CCOc1ccncc1NC(=O)c1c(N)nn2cc(CC#N)cnc12 [I-O-24, 2-amino-6-(cyanomethyl)-N-(4-(2-(dimethylamino)ethoxy)pyridin-3-yl)pyrazolo[1,5-a]pyrimidine-3-carboxamide]	++ (Cisplatin sensitization value>0.02 μM but <0.2 μM)
N#CCc1cnc2c(C(=O)Nc3cnccc3Oc3ccccc3)c(N)nn2c1 [I-O-25, 2-amino-6-(cyanomethyl)-N-(4-phenoxypyridin-3-yl)pyrazolo[1,5-a]pyrimidine-3-carboxamide]	+++ (Cisplatin sensitization value of <0.02 μM)
COc1ccncc1NC(=O)c1c(N)nn2cc(CC#N)cnc12 [I-O-26, 2-amino-6-(cyanomethyl)-N-(4-methoxypyridin-3-yl)pyrazolo[1,5-a]pyrimidine-3-carboxamide]	++ (Cisplatin sensitization value>0.02 μM but <0.2 μM)
COc1cc(Cl)ncc1NC(=O)c1c(N)nn2cc(CC#N)cnc12 [I-O-27, 2-amino-N-(6-chloro-4-methoxypyridin-3-yl)-6-(cyanomethyl)pyrazolo[1,5-a]pyrimidine-3-carboxamide]	++ (Cisplatin sensitization value>0.02 μM but <0.2 μM)
CCOc1ccncc1NC(=O)c1c(N)nn2cc(CC#N)cnc12 [I-O-28, 2-amino-6-(cyanomethyl)-N-(4-ethoxypyridin-3-yl)pyrazolo[1,5-a]pyrimidine-3-carboxamide]	+++ (Cisplatin sensitization value of <0.02 μM)
COCCOc1ccncc1NC(=O)c1c(N)nn2cc(CC#N)cnc12 [I-O-29, 2-amino-6-(cyanomethyl)-N-(4-(2-methoxyethoxy)pyridin-3-yl)pyrazolo[1,5-a]pyrimidine-3-carboxamide]	+++ (Cisplatin sensitization value of <0.02 μM)
N#CCc1cnc2c(C(=O)Nc3cnccc3OC3CCOCC3)c(N)nn2c1 [I-O-30, 2-amino-6-(cyanomethyl)-N-(4-((tetrahydro-2H-pyran-4-yl)oxy)pyridin-3-yl)pyrazolo[1,5-a]pyrimidine-3-carboxamide]	+++ (Cisplatin sensitization value of <0.02 μM)
N#CCc1cnc2c(C(=O)Nc3cnccc3O[C@@H]3CCOC3)c(N)nn2c1 [I-O-31, (R)-2-amino-6-(cyanomethyl)-N-(4-((tetrahydrofuran-3-yl)oxy)pyridin-3-yl)pyrazolo[1,5-a]pyrimidine-3-carboxamide]	+++ (Cisplatin sensitization value of <0.02 μM)
N#CCc1cnc2c(C(=O)Nc3cnccc3OCC3CC3)c(N)nn2c1 [I-O-32, 2-amino-6-(cyanomethyl)-N-(4-(cyclopropylmethoxy)pyridin-3-yl)pyrazolo[1,5-a]pyrimidine-3-carboxamide]	+++ (Cisplatin sensitization value of <0.02 μM)
N#CCc1cnc2c(C(=O)Nc3cnccc3OCCO)c(N)nn2c1 [I-O-33, 2-amino-6-(cyanomethyl)-N-(4-(2-hydroxyethoxy)pyridin-3-yl)pyrazolo[1,5-a]pyrimidine-3-carboxamide]	++ (Cisplatin sensitization value>0.02 μM but <0.2 μM)
N#CCc1cnc2c(C(=O)Nc3cnccc3OCC(F)(F)F)c(N)nn2c1 [I-O-34, 2-amino-6-(cyanomethyl)-N-(4-(2,2,2-trifluoroethoxy)pyridin-3-yl)pyrazolo[1,5-a]pyrimidine-3-carboxamide]	++ (Cisplatin sensitization value>0.02 μM but <0.2 μM)

Structure (SMILES)	Cisplatin Sensitization Assay
CC(C)Oc1ccncc1NC(=O)c1c(N)nn2cc(CC#N)cnc12 [I-O-35, 2-amino-6-(cyanomethyl)-N-(4-isopropoxypyridin-3-yl)pyrazolo[1,5-a]pyrimidine-3-carboxamide]	+++ (Cisplatin sensitization value of <0.02 μM)
N#CCc1cnc2c(C(=O)Nc3cnccc3OC3CCC3)c(N)nn2c1 [I-O-36, 2-amino-6-(cyanomethyl)-N-(4-cyclobutoxypyridin-3-yl)pyrazolo[1,5-a]pyrimidine-3-carboxamide]	+++ (Cisplatin sensitization value of <0.02 μM)
N#CCc1cnc2c(C(=O)Nc3cnccc3OC3COC3)c(N)nn2c1 [I-O-38, 2-amino-6-(cyanomethyl)-N-(4-(oxetan-3-yloxy)pyridin-3-yl)pyrazolo[1,5-a]pyrimidine-3-carboxamide]	+++ (Cisplatin sensitization value of <0.02 μM)
N#CCc1cnc2c(C(=O)Nc3cnccc3OC3CCCCC3)c(N)nn2c1 [I-O-39, 2-amino-6-(cyanomethyl)-N-(4-(cyclohexyloxy)pyridin-3-yl)pyrazolo[1,5-a]pyrimidine-3-carboxamide]	+++ (Cisplatin sensitization value of <0.02 μM)
N#CCc1cnc2c(C(=O)Nc3cnccc3OCCCO)c(N)nn2c1 [I-O-40, 2-amino-6-(cyanomethyl)-N-(4-(3-hydroxypropoxy)pyridin-3-yl)pyrazolo[1,5-a]pyrimidine-3-carboxamide]	++ (Cisplatin sensitization value>0.02 μM but <0.2 μM)
N#CCc1cnc2c(C(=O)Nc3cnccc3OC3CCCOC3)c(N)nn2c1 (centres unmarked) [I-O-41, 2-amino-6-(cyanomethyl)-N-(4-((tetrahydro-2H-pyran-3-yl)oxy)pyridin-3-yl)pyrazolo[1,5-a]pyrimidine-3-carboxamide]	+++ (Cisplatin sensitization value of <0.02 μM)
N#CCc1cnc2c(C(=O)Nc3cnccc3O[C@H]3CCOC3)c(N)nn2c1 [I-O-42, (S)-2-amino-6-(cyanomethyl)-N-(4-((tetrahydrofuran-3-yl)oxy)pyridin-3-yl)pyrazolo[1,5-a]pyrimidine-3-carboxamide]	+++ (Cisplatin sensitization value of <0.02 μM)
N#CCc1cnc2c(C(=O)Nc3cnccc3OC3CCCC3)c(N)nn2c1 [I-O-43, 2-amino-6-(cyanomethyl)-N-(4-(cyclopentyloxy)pyridin-3-yl)pyrazolo[1,5-a]pyrimidine-3-carboxamide]	+++ (Cisplatin sensitization value of <0.02 μM)
Nc1nn2cc(F)cnc2c1C(=O)Nc1cnccc1OC1CC[S+]([O-])CC1 (centres unmarked) [I-O-44, 2-amino-6-fluoro-N-(4-((1-oxidotetrahydro-2H-thiopyran-4-yl)oxy)pyridin-3-yl)pyrazolo[1,5-a]pyrimidine-3-carboxamide]	++ (Cisplatin sensitization value>0.02 μM but <0.2 μM)
Nc1nn2cc(F)cnc2c1C(=O)Nc1cnccc1OC1CCS(=O)(=O)CC1 [I-O-45, 2-amino-N-(4-((1,1-dioxidotetrahydro-2H-thiopyran-4-yl)oxy)pyridin-3-yl)-6-fluoropyrazolo[1,5-a]pyrimidine-3-carboxamide]	+++ (Cisplatin sensitization value of <0.02 μM)
CN1CCC(Oc2c(Cl)cncc2NC(=O)c2c(N)nn3cc(Cl)cnc23)CC1 [I-O-46, 2-amino-6-chloro-N-(5-chloro-4-((1-methylpiperidin-4-yl)oxy)pyridin-3-yl)pyrazolo[1,5-a]pyrimidine-3-carboxamide]	+ (Cisplatin sensitization value>0.2 μM but <5 μM)
CN(C)CCOCCOc1ccncc1NC(=O)c1c(N)nn2cc(Cl)cnc12 [I-O-47, 2-amino-6-chloro-N-(4-(2-(2-(dimethylamino)ethoxy)ethoxy)pyridin-3-yl)pyrazolo[1,5-a]pyrimidine-3-carboxamide]	+ (Cisplatin sensitization value>0.2 μM but <5 μM)
CN(C)CCOc1ccncc1NC(=O)c1c(N)nn2cc(Cl)cnc12 [I-O-48, 2-amino-6-chloro-N-(4-(2-(dimethylamino)ethoxy)pyridin-3-yl)pyrazolo[1,5-a]pyrimidine-3-carboxamide]	++ (Cisplatin sensitization value>0.02 μM but <0.2 μM)
CN1CCC[C@@H]1COc1ccncc1NC(=O)c1c(N)nn2cc(Cl)cnc12 [I-O-49, (R)-2-amino-6-chloro-N-(4-((1-methylpyrrolidin-2-yl)methoxy)pyridin-3-yl)pyrazolo[1,5-a]pyrimidine-3-carboxamide]	+ (Cisplatin sensitization value>0.2 μM but <5 μM)
CN1CCC[C@H]1COc1ccncc1NC(=O)c1c(N)nn2cc(Cl)cnc12 [I-O-50, (S)-2-amino-6-chloro-N-(4-((1-methylpyrrolidin-2-yl)methoxy)pyridin-3-yl)pyrazolo[1,5-a]pyrimidine-3-carboxamide]	+ (Cisplatin sensitization value>0.2 μM but <5 μM)
CN(C)CCCOc1ccncc1NC(=O)c1c(N)nn2cc(Cl)cnc12 [I-O-52, 2-amino-6-chloro-N-(4-(3-(dimethylamino)propoxy)pyridin-3-yl)pyrazolo[1,5-a]pyrimidine-3-carboxamide]	+ (Cisplatin sensitization value>0.2 μM but <5 μM)
